Experimental data reported in patent US9481648B2, “Kinase inhibitors” (Respivert Limited, priority 2013, dated 2016).

Assays:
c-Src = c-Src (Homo sapiens (Human), UniProt P12931); experiment: c-Src enzyme inhibition (FRET, Z-LYTE); type: biochemical
How it was run: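 Syk or c-Src enzyme (3000 or 2000 ng/mL solutions) was preincubated 2 h at RT with compound solutions at 1, 0.1, 0.01 or 0.001 µg/mL. Z-LYTE FRET peptide (8 µM solution) and ATP (800 µM solution for c-Src, 60 µM for Syk) were then added for 1 h, followed by protease development for 1 h. Phosphorylation was read as the coumarin/fluorescein emission ratio.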

[1] = test system: β-catenin in d-U937 cells; experiment: Accumulation of β catenin in d-U937 cells (assay m); type: cell-based, human
How it was run: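 U937 cells were differentiated with PMA (100 ng/mL) for 48–72 hr, then treated with compound or vehicle for 18 hr. After formaldehyde fixation, β-catenin was detected with a primary antibody and an HRP secondary using TMB (OD450–655). Signal was normalised to crystal violet cell staining (OD595).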

[2] = Plasma pharmacokinetics and total colon tissue distribution in mice, single oral administration; type: in vivo, mouse (male C57BL/6); details: male, C57BL/6, mouse, 5 mg/kg
Procedure: (§1) Studies were conducted by Sai Life Sciences (Hinjewadi, Pune, India) to investigate the plasma pharmacokinetics and total colon tissue distribution of compounds of the invention. In particular, pharmacokinetic studies were carried out in: • male C57BL/6 mice, following a single oral administration; and • male Wistar rats following a single intravenous or oral administration.

[3] = Plasma pharmacokinetics in rats, single intravenous or oral administration; type: in vivo, rat (male Wistar); details: for C0: intravenous 0.25 mg/kg in 5% DMSO-7.5% Solutol HS15-87.5% normal saline; for Vd: read-out: Vss; for Fpo: oral 5 mg/kg, vehicle C (Example 4) or B
Procedure: as §1

human hepatocytes = experiment: Human hepatocyte stability test; type: in vitro ADME
Procedure: Assessment of certain in vitro ADME (absorption, distribution, metabolism, and excretion) parameters for certain compounds of the invention was conducted by BioFocus (Saffron Walden, UK).

[4] = test system: endotoxin (LPS)-induced uveitis in Lewis rats; experiment: Endotoxin-induced uveitis in rats (in vivo vi); design: species or system rat; details: for IL-1β Anterior / IL-1β Posterior / IL-6 Anterior / IL-6 Posterior / MCP-1 Anterior / MCP-1 Posterior: eyes of LPS-stimulated rats, 1 mg/mL; for cytokine levels in both the anterior and posterior segments of the eyes: rats treated with intravitreal endotoxin LPS, topical dosing
Procedure: Male, Lewis rats (6-8 weeks old, Charles River UK Limited) are housed in cages of 3 at 19-21° C. with a 12 h light/dark cycle (07:00/19:00) and fed a standard diet of rodent chow and water ad libitum. Non-fasted rats are weighed, individually identified on the tail with a permanent marker, and receive a single intravitreal administration into the right vitreous humor (5 μL dose volume) of 100 ng/animal of LPS (Escherichia coli 0111:B4 prepared in PBS, Sigma Aldrich, UK) using a 32-gauge needle. Untreated rats are injected with PBS. […] Following euthanasia, the right eye of each animal is enucleated and dissected into front (anterior) and back (posterior) sections around the lens. Each section is weighed and homogenised in 500 μL of sterile phosphate buffered saline followed by 20 minutes centrifugation at 12000 rpm at 4° C.

[5] = test system: rat, Cynomolgus macaque or human hepatocytes; experiment: Analysis of metabolites after incubation with hepatocytes; type: in vitro ADME; details: 10 μM
Procedure: Studies were conducted by BioFocus (Saffron Walden, UK) to determine the metabolic fate of the compound of Example 16 following incubation with rat, Cynomolgus macaque or human hepatocytes.
Separate incubations (n=3) of the compound of Example 16 (10 μM initial concentration) or DMSO control, were performed with cryopreserved hepatocytes from each species (0.5 million cell/mL) at 37° C. for 0, 60 and 90 minutes before termination of reactions and compound extraction with acetonitrile. Sample replicates were pooled prior to analysis.
Potential metabolites were identified using time-of-flight (TOF) and triple quadruple (TQ) mass spectrometers.

[6] = plasma, read-out: Median plasma concentration
[7] = total colon, read-out: Median total colon concentration
[8] = male, Wistar, rat, plasma, rats, intravenous 0.25 mg/kg
[9] = male, Wistar, rat, plasma, rats
[10] = male, Wistar, rat, plasma, po, 5 mg/kg
[11] = male, Wistar, rat, plasma, po, 5 mg/kg, read-out: Median plasma concentration

Chain of c-Src (P12931 whole entry, looked up): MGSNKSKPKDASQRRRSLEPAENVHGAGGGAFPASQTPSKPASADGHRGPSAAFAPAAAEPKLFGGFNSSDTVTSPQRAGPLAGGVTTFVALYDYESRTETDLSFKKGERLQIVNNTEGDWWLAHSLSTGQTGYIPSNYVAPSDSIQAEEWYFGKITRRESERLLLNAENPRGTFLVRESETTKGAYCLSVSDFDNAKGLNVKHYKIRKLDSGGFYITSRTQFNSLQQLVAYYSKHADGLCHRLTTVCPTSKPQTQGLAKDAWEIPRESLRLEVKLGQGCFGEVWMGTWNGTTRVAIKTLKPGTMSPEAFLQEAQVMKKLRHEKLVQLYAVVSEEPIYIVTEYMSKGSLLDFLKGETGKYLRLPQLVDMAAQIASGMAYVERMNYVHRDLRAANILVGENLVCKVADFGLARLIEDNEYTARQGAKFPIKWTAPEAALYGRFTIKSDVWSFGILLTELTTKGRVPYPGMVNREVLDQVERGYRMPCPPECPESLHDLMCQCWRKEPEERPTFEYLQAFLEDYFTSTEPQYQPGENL

COCCOCCOCCNC(=O)c1cc(Nc2cc(Oc3ccc(NC(=O)Nc4cc(C(C)(C)C)cc(NS(C)(=O)=O)c4OC)c4ccccc34)ccn2)cc(OC)c1 [Example 3, 3-((4-((4-(3-(5-(tert-Butyl)-2-methoxy-3-(methylsulfonamido)phenyl)ureido)naphthalen-1-yl)oxy)pyridin-2-yl)amino)-5-methoxy-N-(2-(2-(2-methoxyethoxy)ethoxy)ethyl)benzamide]
IC50 (c-Src): 20 nM | % β-catenin induction ([1]; test compound 1 μg/mL): 0% | % β-catenin induction ([1]; test compound 5 μg/mL): 4% | % β-catenin induction ([1]; test compound 10 μg/mL): 4% | concentration at 6 h [2, 6]: 114 ng/mL | concentration at 1 h [2, 7]: 107 ng/g | concentration at 2 h [2, 7]: 274 ng/g | concentration at 4 h [2, 7]: 209 ng/g | concentration at 6 h [2, 7]: 255 ng/g | concentration at 8 h [2, 7]: 278 ng/g | concentration at 12 h [2, 7]: 232 ng/g | concentration at 24 h [2, 7]: 19.1 ng/g | AUC(0-inf) [3, 8]: 821 ng·h/mL | AUC(0-t) [3, 8]: 820 ng·h/mL | half-life [3, 8]: 12 min | C0 [3, 9]: 4380 ng/mL | Vd [3, 8]: 0.1 L/kg | CI ([3]; rats, intravenous 0.25 mg/kg): 5.1 mL/min/kg | Fpo ([3]; rats): 0.0% | Mean hepatic extraction ratio (human hepatocytes): 0.85

COCCOCCOCCOc1cc(Nc2nccc(Oc3ccc(NC(=O)Nc4cc(C(C)(C)C)cc(NS(C)(=O)=O)c4OC)c4ccccc34)n2)cc(OC)c1 [Example 4, N-(5-(tert-Butyl)-2-methoxy-3-(3-(4-((2-((3-methoxy-5-(2-(2-(2-methoxyethoxy)ethoxy)-ethoxy)phenyl)amino)pyrimidin-4-yl)oxy)naphthalen-1-yl)ureido)phenyl)methanesulfonamide]
IC50 (c-Src): 14 nM | % β-catenin induction ([1]; test compound 1 μg/mL): 3% | % β-catenin induction ([1]; test compound 5 μg/mL): 20% | % β-catenin induction ([1]; test compound 10 μg/mL): 20% | IL-1β Anterior ([4]; Table 7a): 20.3 ± 18.9 pg/mL | IL-1β Posterior ([4]; Table 7a): 7.6 ± 7.6 pg/mL | IL-6 Anterior ([4]; Table 7a): 642.3 ± 48.9 pg/mL | IL-6 Posterior ([4]; Table 7a): 897.9 ± 120.3 pg/mL | MCP-1 Anterior ([4]; Table 7a): 0 ± 0 pg/mL | MCP-1 Posterior ([4]; Table 7a): 1.0 ± 1.0 pg/mL | cytokine levels in both the anterior and posterior segments of the eyes [4]: significantly reduced | AUC(0-inf) [3, 10]: 40.8 ng·h/mL | AUC(0-t) [3, 10]: 27 ng·h/mL | Cmax [3, 10]: 15.5 ng/mL | Tmax [3, 10]: 30 min | AUC(0-inf) [3, 8]: 563 ng·h/mL | AUC(0-t) [3, 8]: 558 ng·h/mL | half-life [3, 8]: 48 min | C0 [3, 9]: 3040 ng/mL | Vd [3, 8]: 0.2 L/kg | CI ([3]; rats, intravenous 0.25 mg/kg): 7.9 mL/min/kg | Fpo ([3]; rats): 0.2%

C#Cc1cc(Nc2nccc(Oc3ccc(NC(=O)Nc4cc(C(C)(C)C)cc(NS(C)(=O)=O)c4OC)c4ccccc34)n2)cc(C(=O)NCCOCCOCCOC)c1 [Example 16]
Fpo ([3]; rats): 0.0% | number of metabolites resulting from oxidation on the polyethylene glycol chain of the amide moiety ([5]; hepatocytes): 8 | products connected to metabolism at the naphthalene moiety ([5]; hepatocytes): no products were noted | number of metabolites formed in hepatocytes ([5]; rat, Cynomolgus macaque or human hepatocytes, 0, 60 and 90 minutes): 9

COc1cc(Nc2cc(Oc3ccc(NC(=O)Nc4cc(C(C)(C)C)cc(NS(C)(=O)=O)c4OC)c4ccccc34)ccn2)cc(C(=O)NCCN2CCOCC2)c1 [Example 27]
IC50 (c-Src): 26 nM | % β-catenin induction ([1]; test compound 1 μg/mL): −12% | % β-catenin induction ([1]; test compound 5 μg/mL): −7% | % β-catenin induction ([1]; test compound 10 μg/mL): −1% | IL-1β Anterior ([4]; Table 7b): 640 ± 263 pg/mL | IL-1β Posterior ([4]; Table 7b): 394 ± 115 pg/mL | IL-6 Anterior ([4]; Table 7b): 519 ± 196 pg/mL | IL-6 Posterior ([4]; Table 7b): 424 ± 116 pg/mL | MCP-1 Anterior ([4]; Table 7b): 282 ± 109 pg/mL | MCP-1 Posterior ([4]; Table 7b): 352 ± 109 pg/mL | cytokine levels in both the anterior and posterior segments of the eyes [4]: significantly reduced | AUC(0-inf) [3, 8]: 590 ng·h/mL | AUC(0-t) [3, 8]: 588 ng·h/mL | half-life [3, 8]: 48 min | C0 [3, 9]: 3880 ng/mL | Vd [3, 8]: 0.1 L/kg | CI ([3]; rats, intravenous 0.25 mg/kg): 7.1 mL/min/kg | Fpo ([3]; rats): 0.0%

COc1c(NC(=O)Nc2ccc(Oc3ccnc(Nc4ccccc4)c3)c3ccccc23)cc(C(C)(C)C)cc1C(=O)NC1COC1 [Example 75, 5-(tert-Butyl)-2-methoxy-N-(oxetan-3-yl)-3-(3-(4-((2-(phenylamino)pyridin-4-yl)oxy)-naphthalen-1-yl)ureido)benzamide]
IC50 (c-Src): 97 nM | % β-catenin induction ([1]; test compound 1 μg/mL): 3% | % β-catenin induction ([1]; test compound 5 μg/mL): 25% | % β-catenin induction ([1]; test compound 10 μg/mL): 30% | IL-1β Anterior ([4]; Table 7b): 570 ± 146 pg/mL | IL-1β Posterior ([4]; Table 7b): 414 ± 97 pg/mL | IL-6 Anterior ([4]; Table 7b): 393 ± 118 pg/mL | IL-6 Posterior ([4]; Table 7b): 489 ± 119 pg/mL | MCP-1 Anterior ([4]; Table 7b): 239 ± 82 pg/mL | MCP-1 Posterior ([4]; Table 7b): 279 ± 83 pg/mL | cytokine levels in both the anterior and posterior segments of the eyes [4]: significantly reduced | concentration at 1 h [2, 6]: 1.8 ng/mL | concentration at 2 h [2, 6]: 1.5 ng/mL | concentration at 4 h [2, 6]: 0 ng/mL | concentration at 6 h [2, 6]: 0 ng/mL | concentration at 8 h [2, 6]: 0 ng/mL | concentration at 12 h [2, 6]: 0 ng/mL | concentration at 24 h [2, 6]: 0 ng/mL | concentration at 1 h [2, 7]: 17.8 ng/g | concentration at 2 h [2, 7]: 56.2 ng/g | concentration at 4 h [2, 7]: 1340 ng/g | concentration at 6 h [2, 7]: 5720 ng/g | concentration at 8 h [2, 7]: 350 ng/g | concentration at 12 h [2, 7]: 391 ng/g | concentration at 24 h [2, 7]: 7.5 ng/g | AUC(0-t) [3, 10]: 26.6 ng·h/mL | Cmax [3, 10]: 3.8 ng/mL | Tmax [3, 10]: 318 min | concentration at 0.25 h [3, 11]: 0 ng/mL | concentration at 0.5 h [3, 11]: 0 ng/mL | concentration at 1 h [3, 11]: 0 ng/mL | concentration at 2 h [3, 11]: 1.2 ng/mL | concentration at 4 h [3, 11]: 3.1 ng/mL | concentration at 6 h [3, 11]: 2 ng/mL | concentration at 8 h [3, 11]: 3.2 ng/mL | concentration at 12 h [3, 11]: 2.3 ng/mL | concentration at 24 h [3, 11]: 0 ng/mL | AUC(0-inf) [3, 8]: 952 ng·h/mL | AUC(0-t) [3, 8]: 948 ng·h/mL | half-life [3, 8]: 72 min | C0 [3, 9]: 4000 ng/mL | Vd [3, 8]: 0.1 L/kg | CI ([3]; rats, intravenous 0.25 mg/kg): 4.4 mL/min/kg | Fpo ([3]; rats): 0.1% | Mean hepatic extraction ratio (human hepatocytes): <0.50
